Experimental data reported in ChEMBL document CHEMBL4295262, “Evaluation of the utility of stem-cell derived cardiomyocytes for drug proarrhythmic potential” (2019).

Experiments:
Conditions in all cases: human, ipsc-cm
[1] = (§1) Electrical activity assay on cell lines treated with a given drug. DMSO was used as a vehicle and a control, unblinded dofetilide was used as a control.; assay type: ADME, cell-based; parameters: FPDc: unit not given here
[2] = as §1
[3] = as §1; remark: listed apart in the source
[4] = as §1; assay type: cell-based; parameters: APDc: unit not given here
[5] = 0.01 µM, concentration (um) 0.01 uM
[6] = 0.1 µM, concentration (um) 0.1 uM
[7] = 10 µM, concentration (um) 10 uM

Row | FPDc [1, 5] | FPDc [1, 6] | FPDc ([1]; 1 µM, concentration (um) 1 uM) | FPDc ([2]; 0.01 µM) | FPDc ([2]; 0.1 µM) | APDc [4, 5] | FPD measurement [4, 5] | APDc [4, 6] | FPD measurement [4, 6] | APDc ([4]; 1 µM, concentration (um) 1 uM) | FPD measurement ([4]; 1 µM, concentration (um) 1 uM) | Compound | FPDc [1, 7] | FPDc ([2]; 1 µM) | FPDc ([2]; 10 µM) | other results
1 | 0.03892 | 0.04044 | 0.04651 | 73.84 | 69.12 | 52.41 | 52.41 FPDc | 47.87 | 47.87 FPDc | 63.58 | 63.58 FPDc | CN1CCN(CCCCN2C(=O)CN(/N=C/c3ccc(-c4ccc(Cl)cc4)o3)C2=O)CC1 [AZIMILIDE] | 0.06031 | More Than Half The Wells Had A Quiescence Event Or Fpdc Readings Of 0 | More Than Half The Wells Had A Quiescence Event Or Fpdc Readings Of 0 | FPD measurement ([3]; 0.01 µM): 55.32 FPDc; FPDc ([3]; 0.01 µM): 55.32; FPD measurement ([3]; 0.1 µM): 56.52 FPDc; FPDc ([3]; 0.1 µM): 56.52; FPD measurement ([3]; 1 µM): 77.06 FPDc; FPDc ([3]; 1 µM): 77.06; FPD measurement ([3]; 10 µM): 5 Values Out Of 5 Were Excluded Due To Quiescence Or 0 Fpdc; FPDc ([3]; 10 µM): 5 Values Out Of 5 Were Excluded Due To Quiescence Or 0 Fpdc; APDc [4, 7]: 121.3; FPD measurement [4, 7]: 121.3 FPDc
2 | 0.04073 | 0.0376 | 0.04541 | 70.33 | 77.75 | 52.45 | 52.45 FPDc | 43.71 | 43.71 FPDc | 57.33 | 57.33 FPDc | CC(C)COCC(CN(Cc1ccccc1)c1ccccc1)N1CCCC1 (stereo unspecified) [BEPRIDIL] | More Than Half The Wells Had A Quiescence Event Or Fpdc Readings Of 0 | 78.3 | More Than Half The Wells Had A Quiescence Event Or Fpdc Readings Of 0 | FPD measurement [1, 7]: More Than Half The Wells Had A Quiescence Event Or Fpdc Readings Of 0; FPD measurement ([2]; 1 µM): 5 Values Out Of 5 Were Excluded Due To Quiescence Or 0 Apdc; FPD measurement ([2]; 10 µM): More Than Half The Wells Had A Quiescence Event Or Apdc Readings Of 0
